The target of assay [1] is T1, EIF2AK3 (PERK) catalytic domain (amino acids 536-1116) (Homo sapiens, UniProt Q9NZJ5).
T1 construct: EIF2AK3 (PERK) catalytic domain (amino acids 536-1116)
T1 sequence (Q9NZJ5 536-1116): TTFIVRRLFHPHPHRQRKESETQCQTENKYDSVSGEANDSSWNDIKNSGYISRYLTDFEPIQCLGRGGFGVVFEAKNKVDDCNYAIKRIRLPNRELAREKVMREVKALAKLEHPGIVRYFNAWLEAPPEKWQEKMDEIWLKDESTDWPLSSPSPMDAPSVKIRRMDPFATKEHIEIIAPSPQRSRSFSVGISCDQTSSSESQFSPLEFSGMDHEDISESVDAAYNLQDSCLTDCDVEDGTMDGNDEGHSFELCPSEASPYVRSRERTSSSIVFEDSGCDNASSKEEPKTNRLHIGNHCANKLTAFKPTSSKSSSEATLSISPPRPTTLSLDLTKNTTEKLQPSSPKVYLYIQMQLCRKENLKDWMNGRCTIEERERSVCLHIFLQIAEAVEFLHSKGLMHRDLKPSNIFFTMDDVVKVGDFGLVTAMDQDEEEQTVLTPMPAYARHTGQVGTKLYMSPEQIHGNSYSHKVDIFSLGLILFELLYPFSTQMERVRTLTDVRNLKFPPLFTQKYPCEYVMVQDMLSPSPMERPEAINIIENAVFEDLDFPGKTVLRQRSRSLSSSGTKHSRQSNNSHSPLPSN
Description: PERK in vitro activity assay (isolated), TR-FRET kinase assay. In kind it is biochemical. To be noted: isolated PERK enzyme, 1.5 μM ATP; read-out: Biochemical IC50. In short, it runs like this: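 TR-FRET read-out: after EDTA stop (10 mM final), Tb-labelled phospho-eIF2a antibody (2 nM) for 90 min; IC50 via 4-parameter nonlinear fit. Reaction: PERK aa 536-1116, GFP-eIF2a 100-200 nM, HEPES pH 7.5 with MgCl2/EGTA/Brij-35, 45 min, room temperature, started by enzyme.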
(In TR-FRET formats the signal depends on donor and acceptor labels being close together.)

Assay [2] concerns GFP-eIF2α in HEK293 cells. Kind of assay: PERK cellular assay, TR-FRET in HEK293-EGFP-eIF2a cells after tunicamycin-induced ER stress. In kind it is cell-based. To be noted: HEK293-EGFP-eIF2a cells, tunicamycin 2 hours, read-out: Cellular eIF2α IC50. In short, it runs like this:
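Compounds were added 30 min before a 2 h tunicamycin ([…]) challenge of lentivirally made GFP-eIF2α HEK293 cells, 5000/well; lysate TR-FRET ratio was the read-out.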

As a reminder, the pIC50 is the IC50 on a negative log10 scale, so that one unit is a factor of ten.

pIC50: −log10 of the molar value. Like-named read-outs stand apart in the source and are kept apart here.

In the case of `Cc1cc(NC(=O)CC2CCCC2)ccc1-c1cn(C)c2ncnc(N)c12` [Example 165, N-(4-(4-amino-7-methyl-7H-pyrrolo[2,3-d]pyrimidin-5-yl)-3-methylphenyl)-2-cyclopentyl-acetamide], the pIC50 was 6.60 to 7.00 in assay [1] and 6.00 to 6.30 in assay [2] (Homo sapiens, HEK293, 2 h).
On to `Cc1nc(N)c2c(-c3ccc(NC(=O)C(O)c4cc(F)cc(C(F)(F)F)c4)cc3C)cn(C)c2n1` (single isomer, unassigned) [Example 55, N-(4-(4-amino-2,7-dimethyl-7H-pyrrolo[2,3-d]pyrimidin-5-yl)-3-methylphenyl)-2-(3-fluoro-5-(trifluoromethyl)phenyl)-2-hydroxyacetamide], for which the negative logarithm of the IC50 (pIC50) in assay [1] was 6.60 to 7.00; in assay [2], 6.30 to 6.60.
As to `Cc1nc(N)c2c(-c3ccc(NC(=O)C(O)c4cccc(Cl)c4)cc3F)cn(C)c2n1` (stereo not shown) [Example 82, N-(4-(4-amino-2,7-dimethyl-7H-pyrrolo[2,3-d]pyrimidin-5-yl)-3-fluorophenyl)-2-(3-chlorophenyl)-2-hydroxyacetamide], the pIC50 in assay [1] and in assay [2] was 7.60 to 9.00 throughout.
For `Cc1ccccc1CC(=O)Nc1ccc(-c2cn(C)c3ncnc(N)c23)c(C)c1` [Example 142, N-(4-(4-amino-7-methyl-7H-pyrrolo[2,3-d]pyrimidin-5-yl)-3-methylphenyl)-2-(o-tolyl)acetamide], the negative logarithm of the IC50 (pIC50) in assay [1] is 7.60 to 9.00; in assay [2] (Homo sapiens, HEK293, 2 h), 7.30 to 7.59.
As for `Cc1nc(N)c2c(-c3ccc(NC(=O)C(O)c4cccc(F)c4)cc3F)cn(C)c2n1` (stereo not shown) [Example 80, N-(4-(4-amino-2,7-dimethyl-7H-pyrrolo[2,3-d]pyrimidin-5-yl)-3-fluorophenyl)-2-(3-fluorophenyl)-2-hydroxyacetamide], the values for the pIC50 in assay [1] and in assay [2] were 7.60 to 9.00 and 7.30 to 7.59, respectively.
On to `Cc1cccc(C(O)C(=O)Nc2ccc(-c3cn(C)c4nc(C)nc(N)c34)c(C)c2)c1` (stereo not shown) [Example 42, N-(4-(4-amino-2,7-dimethyl-7H-pyrrolo[2,3-d]pyrimidin-5-yl)-3-methylphenyl)-2-hydroxy-2-(m-tolyl)acetamide], for which the pIC50 in assay [1] was 7.60 to 9.00; in assay [2] (Homo sapiens, HEK293, 2 h) it was 7.00 to 7.29.
In the case of `Cc1cccc(C(O)C(=O)Nc2ccc(-c3cn(C)c4nc(C)nc(N)c34)c(F)c2)c1` (stereo not shown) [Example 73, N-(4-(4-amino-2,7-dimethyl-7H-pyrrolo[2,3-d]pyrimidin-5-yl)-3-fluorophenyl)-2-hydroxy-2-(m-tolyl)acetamide], the negative-log IC50 (pIC50) in assay [1] was 7.30 to 7.59; in assay [2], 6.00 to 6.30.
Consider `Cc1cccc(CC(=O)Nc2ccc(-c3cn(C)c4ncnc(N)c34)c(C)c2)c1` [Example 143, N-(4-(4-amino-7-methyl-7H-pyrrolo[2,3-d]pyrimidin-5-yl)-3-methylphenyl)-2-(m-tolyl)acetamide], for which the pIC50 is 7.60 to 9.00 in assay [1] and 7.30 to 7.59 in assay [2] (Homo sapiens, HEK293, 2 h).
Take `Cc1nc(N)c2c(-c3ccc(NC(=O)C(O)c4cccc(C(F)(F)F)c4)cc3C)cn(C)c2n1` (stereo not shown) [Example 51, N-(4-(4-amino-2,7-dimethyl-7H-pyrrolo[2,3-d]pyrimidin-5-yl)-3-methylphenyl)-2-hydroxy-2-(3-(trifluoromethyl)phenyl)acetamide]: the negative logarithm of the IC50 (pIC50) in assay [1] was 6.60 to 7.00; in assay [2], 6.00 to 6.30.
Turning to `Cc1cc(NC(=O)Cc2cccc3ncccc23)ccc1-c1cn(C)c2ncnc(N)c12` [Example 154, N-(4-(4-amino-7-methyl-7H-pyrrolo[2,3-d]pyrimidin-5-yl)-3-methylphenyl)-2-(quinolin-5-yl)acetamide], the pIC50 in assay [1] was 7.00 to 7.29; in assay [2] (Homo sapiens, HEK293, 2 h) it was 6.00 to 6.30.
As for `Cc1nc(N)c2c(-c3ccc(NC(=O)C(O)c4cccc(F)c4)cc3OC(F)(F)F)cn(C)c2n1` (single isomer, unassigned) [Example 21, N-(4-(4-amino-2,7-dimethyl-7H-pyrrolo[2,3-d]pyrimidin-5-yl)-3-(trifluoromethoxy)phenyl)-2-(3-fluorophenyl)-2-hydroxyacetamide], the figures for the negative logarithm of the IC50 (pIC50) in assay [1] and in assay [2] were 7.60 to 9.00 and 6.00 to 6.30, respectively.
The like results for `Cc1nc(N)c2c(-c3ccc(NC(=O)C(O)c4cccc(F)c4)cc3OC(F)(F)F)cn(C)c2n1` (single isomer, unassigned) [Example 22, N-(4-(4-amino-2,7-dimethyl-7H-pyrrolo[2,3-d]pyrimidin-5-yl)-3-(trifluoromethoxy)phenyl)-2-(3-fluorophenyl)-2-hydroxyacetamide] were, in that order, 6.60 to 7.00 and below 5.30.
Turning to `CCc1cc(NC(=O)C(O)c2cccc(F)c2)ccc1-c1cn(C)c2ncnc(N)c12` (stereo not shown) [Example 17, N-(4-(4-amino-7-methyl-7H-pyrrolo[2,3-d]pyrimidin-5-yl)-3-ethylphenyl)-2-(3-fluorophenyl)-2-hydroxyacetamide], the negative logarithm of the IC50 (pIC50) in assay [1] was 7.60 to 9.00; in assay [2] (Homo sapiens, HEK293, 2 h), 7.60 to 9.00.
With `Cc1cccc(C(O)C(=O)Nc2ccc(-c3cn(C)c4nc(C)nc(N)c34)c(Cl)c2)c1` (stereo not shown) [Example 96, N-(4-(4-amino-2,7-dimethyl-7H-pyrrolo[2,3-d]pyrimidin-5-yl)-3-chlorophenyl)-2-hydroxy-2-(m-tolyl)acetamide], the pIC50 in assay [1] and in assay [2] was 7.60 to 9.00 throughout.
For `Cc1cccc(C(O)C(=O)Nc2ccc(-c3cn(C)c4nc(C)nc(N)c34)c(F)c2)c1` (stereo not shown) [Example 74, N-(4-(4-amino-2,7-dimethyl-7H-pyrrolo[2,3-d]pyrimidin-5-yl)-3-fluorophenyl)-2-hydroxy-2-(m-tolyl)acetamide], the negative-log IC50 (pIC50) in assay [1] and in assay [2] was 7.60 to 9.00 in each case.
For `Cc1cc(NC(=O)C(F)(F)c2ccccc2)ccc1-c1cn(C)c2ncnc(N)c12` [Example 28, N-(4-(4-amino-7-methyl-7H-pyrrolo[2,3-d]pyrimidin-5-yl)-3-methylphenyl)-2,2-difluoro-2-phenylacetamide], the pIC50 is 6.30 to 6.60 in assay [1] and 6.00 to 6.30 in assay [2] (Homo sapiens, HEK293, 2 h).
The like results for `Cc1ccc(CC(=O)Nc2ccc(-c3cn(C)c4ncnc(N)c34)c(C)c2)cc1` [Example 144, N-(4-(4-amino-7-methyl-7H-pyrrolo[2,3-d]pyrimidin-5-yl)-3-methylphenyl)-2-(p-tolyl)acetamide] were, in that order, 7.60 to 9.00 and 6.60 to 7.00.
On to `Cc1nc(N)c2c(-c3ccc(NC(=O)C(O)c4cccc(F)c4)cc3C)cn(C)c2n1` (single isomer, unassigned) [Example 2, N-(4-(4-amino-2,7-dimethyl-7H-pyrrolo[2,3-d]pyrimidin-5-yl)-3-methylphenyl)-2-(3-fluorophenyl)-2-hydroxyacetamide], for which the pIC50 in assay [1] is 7.00 to 7.29; in assay [2], 6.30 to 6.60.
The matching figures for `Cc1nc(N)c2c(-c3ccc(NC(=O)C(O)c4cccc5cnn(C)c45)cc3C)cn(C)c2n1` (single isomer, unassigned) [Example 65, N-(4-(4-amino-2,7-dimethyl-7H-pyrrolo[2,3-d]pyrimidin-5-yl)-3-methylphenyl)-2-hydroxy-2-(1-methyl-1H-indazol-7-yl)acetamide]: 6.30 to 6.60 and 5.40 to 5.52.
`Cc1nc(N)c2c(-c3ccc(NC(=O)C(O)c4ccccc4C)cc3C)cn(C)c2n1` (stereo not shown) [Example 40, N-(4-(4-amino-2,7-dimethyl-7H-pyrrolo[2,3-d]pyrimidin-5-yl)-3-methylphenyl)-2-hydroxy-2-(o-tolyl)acetamide]: the pIC50 in assay [1] is 7.30 to 7.59; in assay [2] (Homo sapiens, HEK293, 2 h), 6.60 to 7.00.
With `Cc1nc(N)c2c(-c3ccc(NC(=O)C(O)c4cc(F)cc(C(F)(F)F)c4)c(F)c3F)cn(C)c2n1` (single isomer, unassigned) [Example 116, N-(4-(4-amino-2,7-dimethyl-7H-pyrrolo[2,3-d]pyrimidin-5-yl)-2,3-difluorophenyl)-2-(3-fluoro-5-(trifluoromethyl)phenyl)-2-hydroxyacetamide], the pIC50 in assay [1] and in assay [2] was 6.30 to 6.60 each time.
Consider `Cc1nc(N)c2c(-c3ccc(NC(=O)C(O)c4ccccc4Cl)cc3C)cn(C)c2n1` (stereo not shown) [Example 34, N-(4-(4-amino-2,7-dimethyl-7H-pyrrolo[2,3-d]pyrimidin-5-yl)-3-methylphenyl)-2-(2-chlorophenyl)-2-hydroxyacetamide], for which the pIC50 was 6.60 to 7.00 in assay [1] and 6.00 to 6.30 in assay [2] (Homo sapiens, HEK293, 2 h).
On to `CCc1cc(F)cc(C(O)C(=O)Nc2ccc(-c3cn(C)c4nc(C)nc(N)c34)c(C)c2)c1` (stereo not shown) [Example 58, N-(4-(4-amino-2,7-dimethyl-7H-pyrrolo[2,3-d]pyrimidin-5-yl)-3-methylphenyl)-2-(3-ethyl-5-fluorophenyl)-2-hydroxyacetamide], for which the negative logarithm of the IC50 (pIC50) is 7.60 to 9.00 in assay [1] and 7.00 to 7.29 in assay [2].

These data come from patent US20220356186A1, “PERK INHIBITING PYRROLOPYRIMIDINE COMPOUNDS” (HiberCell, Inc., priority 2019, published 2022).
